Laboratory results reported in US20230181612A1, “AMINOGLYCOSIDE DERIVATIVES AND USES THEREOF IN TREATING GENETIC DISORDERS” (ELOXX PHARMACEUTICALS LTD., priority 2017, published 2023).
“Also recorded” adds a separate entry of the source. Blank lines part the entries; values can stand above or below the molecule they belong to.

Experiments:
[1] = Toxicity assay in cochlear explants (organ of Corti); type: cell-based; conditions: CBA/J, mouse, cochlear explants (organ of Corti), outer hair cells, concentration at 50% loss of hair cells; 72 hours incubation; read-out: Ototoxicity (Loss of outer hair cells), LC50^Coch
Description: (§1) The ototoxicity potential of Set1 and Set2 compounds was tested with cochlear explants as described, for example, in E. Shulman et al., J. Biol. Chem. 289(4), 2318-2330 (2014). The ototoxicity was measured as the value of AG concentration that is needed for 50% of hair loss from the outer hair cells of the cochlea, as follows.
(§2) The tested compounds were screened for toxicity to auditory hair cells in explants of the organ of Corti from CBA/J mice of postnatal day 2-3. The dissected tissue was placed on a collagen-coated incubation dish as a flat surface preparation in 1 ml of serum-free Basal Medium Eagle (Sigma Aldrich, St. Louis, Mo.) plus serum-free supplement (Invitrogen, Eugene, Oreg.), 1% bovine serum albumin, 2 mM glutamine, 5 mg glucose /ml and 10 units penicillin/ml. The explants were incubated for 5 hours (37° C., 5% CO2) and an additional 1 ml of culture medium was added to submerse the explants. After 48 hours of continued pre-incubation the culture medium was exchanged for new medium containing a specified concentration of the tested compound. Following another 72 hours of incubation, the explants were washed three times with PBS, fixed overnight in 4% (v/v) paraformaldehyde at 4° C., and then permeabilized for 30 minutes with 0.3% (v/v) Triton X-100 in PBS. The specimens were washed three times with PBS for 10 minutes at room temperature and incubated with rhodamine phalloidin (1:100; Life Technologies, Eugene, OR), either for 1 hour at room temperature or overnight at 4° C.
(§3) Following several rinses with PBS, the explants were mounted on microscope slides with Fluoro-Gel (Electron Microscopy Sciences, Hatfield, Pa.) and imaged on a Leica SP5 Confocal TCS Microscope (Leica, Wetzlar, Germany). Hair cells were identified by phalloidin-staining of their stereociliary bundles and circumferential F-actin rings. Their presence or absence was quantified using a 50x oil immersion objective on an epifluorescence Leitz Orthoplan microscope (Leica, Wetzlar, Germany), equipped with a calibrated scale (0.19 mm) superimposed on the field of view. All rows of hair cells were oriented longitudinally within each frame and counted from the apex of the cochlea to its base. Cell counts were entered in a computer program and compared to a normative database (KHRI Cytocochleogram, version 3.0.6, Kresge Hearing Research Institute, University of Michigan, Ann Arbor, Mich., USA) and are reported as percent hair cell loss averaged over the entire length of the explant.

[2] = system: outer hair cells; test: as above; type: cell-based; conditions: for morphology of hair cell epithelium: F-actin staining; for ototoxicity potential, in words: LC50^Coch in the millimolar range
Description: as §1, §2, §3

[3] = biological target: eukaryotic ribosome; test: Eukaryotic in vitro translation inhibition (TNT T7 Quick Coupled Transcription/Translation System, luciferase); type: biochemical; conditions: for IC50: eukaryotic in vitro translation, 30 °C, 60 minutes
Description: The Set1 and Set2 compounds as described in Example 1 hereinabove were further tested for their ability to inhibit eukaryotic translation, as follows.
Eukaryotic in vitro translation inhibition was quantified using a TNT® T7 Quick Coupled
Transcription/Translation System with a luciferase T7 control DNA plasmid (Promega), according to the manufacturer protocol. Translation reactions (25 μL) containing variable concentrations of the tested aminoglycoside were incubated at 30° C. for 60 minutes, cooled on ice for 5 minutes, diluted with the dilution reagent and transferred into 96-well plates. In both prokaryotic and eukaryotic systems the luminescence was measured immediately after the addition of the Luciferase Assay Reagent ([…]; Promega), and the light emission was recorded with a FLx800 Fluorescence Microplate Reader (Biotek). The half-maximal inhibition concentration (IC50) values were obtained from fitting concentration-response curves to the data of at least two independent experiments by using Grafit 5 software.

[4] = system: R3X nonsense mutation (PCDH15, premature UGA C stop codon); test: In vitro readthrough, dual luciferase reporter assay, R3X construct; type: biochemical
Description: (§4) The Set1 and Set2 compounds as described in Example 1 hereinabove were tested for their readthrough activity in vitro by using a dual luciferase reporter assay system, as follows.
(§5) DNA fragments derived from PCDH15, CFTR, and IDUA cDNAs, including the tested nonsense mutation or the corresponding WT codon, and four to six upstream and downstream flanking codons, were created by annealing the following pairs of complementary oligonucleotides:
(§6) Fragments were inserted in frame into the polylinker of the p2Luc plasmid between either BamHI and Sad (p.R3X and p.R245X) or Salland Sad (all the rest) restriction sites. For the in vitro readthrough assays, the obtained plasmids, with addition of the tested aminoglycosides were transcribed and translated using the TNT Reticulocyte Lysate Quick Coupled Transcription/Translation System. Luciferase activity was determined after 90 minutes of incubation at 30° C., using the Dual Luciferase Reporter Assay System (Promega™). Stop codon readthrough was calculated as described in Grentzmann et al. RNA 4, 479-486 (1998).
(§7) Reporters carrying R3X nonsense mutation (a premature UGA C stop codon) related to Usher syndrome and G542X (a premature UGA G stop codon) related to Cystic fibrosis were used, and the obtained data is presented in FIGS. 7A-D.

[5] = system: G542X nonsense mutation (CFTR, premature UGA G stop codon); test: In vitro readthrough, dual luciferase reporter assay, G542X construct; type: biochemical; conditions: cystic fibrosis, in words, versus parent compound
Description: as §4, §5, §6, §7

[6] = system: CFTR S466X nonsense mutation; test: Readthrough activity in cell-free dual luciferase assay, CFTR S466X; type: biochemical, rabbit
Text: (§8) A dual luciferase plasmid carrying the Cystic fibrosis transmembrane conductance regulator (CFTR) mutation, S466X, or wild-type sequence, between Renilla and Firefly luciferase was transcribed and translated in vitro using rabbit reticulocytes (TNT mix) and then tested for functional activity of firefly and renilla luciferases. WT plasmids expressed both firefly and renilla luciferases while mutant plasmids expressed only the renilla luciferase due to the stop codon found in the inserted sequence. The readthrough assays were conducted for the tested compounds and controls by adding the compounds to the in vitro transcription/translation reaction mixture.
Read-through activity induced by NB74-MeS and NB124-MeS was calculated from the dual luciferase assay data using results from both the WT and mutant plasmids and the following equation: […]
(iii) Readthrough efficiency is presented as fold-increase in Firefly luciferase activity between NB74-MeS and NB124-MeS treated and non-treated mutant plasmid.
(iv) % readthrough of WT is calculated as the percentage of FF/Renilla of the mutant plasmid divided by the FF/Renilla of the WT plasmid.

[7] = system: ribosomes; test: Translational inhibition (TI) in cell-free dual luciferase assay, Renilla of WT plasmid; type: biochemical, rabbit
Text: as §8
(i) Translational Inhibition (TI; The extent of the translational inhibition of ribosomes by NB74-MeS and NB124-MeS was calculated using the reduction in the Renilla bioluminescence values of WT plasmid by nonlinear regression curve fit on a plot of Relative Light Units (RLU) versus the log NB74-MeS and NB124-MeS molar concentration (Find ECanything analysis, GraphPad PRISM, version 7).

[8] = system: human fibroblast cells; conditions: cited from earlier work

Structure (SMILES): CC(=O)N[C@@H]1CC(N)[C@@H](O[C@H]2OC([C@@H](C)O)[C@@H](O)C(O)C2N)C(O[C@@H]2O[C@H]([C@H](C)N)C(O)C2O)C1O (stereo partly drawn) [NB124-Ac, 6′-(R)-Methyl-5-O-(5-(R)-amino-5-deoxy-β-D-ribofuranose)-2′,3-amino-1-N-acetamide paromamine]
CC50 at 72 h [1]: 1600 µM
morphology of hair cell epithelium ([2]; 150 μM, 72 hours): remained normal and indistinguishable from the control; also recorded: essentially normal morphology
ototoxicity potential, in words [2]: incredibly low ototoxicity potential

Structure (SMILES): C[C@@H](O)C1O[C@H](O[C@@H]2C(N)C[C@@H](N)C(O)[C@H]2O[C@@H]2O[C@H](CN)[C@H](O)C2O)C(N)[C@@H](O)[C@@H]1O (some centres unmarked) [NB74, reference compound]
IC50 [3]: 14.3 µM
CC50 at 72 h [1]: 112 µM

Structure (SMILES): C[C@@H](O)C1O[C@H](O[C@@H]2C(N)C[C@@H](NS(C)(=O)=O)C(O)C2O[C@@H]2O[C@H](CN)C(O)C2O)C(N)C(O)[C@@H]1O (stereo partly drawn) [NB74-MeS, 6′-(R)-Methyl-5-O-(5″-amino-5″-deoxy-11-D-ribofuranose)-2′,3-amino-1-N-methanesulfonamide paromamine]
folds better readthrough activity in comparison to NB74 [4]: about 1.5 folds
readthrough activity, G542X mutation [5]: better activity
IC50 [3]: 8.35 µM
folds more specific to the eukaryotic ribosome than NB74 ([3]; from IC50 values): 1.7 folds
Fold Read-through at TI80 ([6]; S466X, relative to MUT control, 0-16 μM range): 9.9 Fold
% Read-through at TI80 ([6]; S466X, relative to WT): 17%
suppression of cystic fibrosis S466X nonsense mutation, in words ([6]; cell-free assay, data not shown): dose-response suppression
TI80 [7]: 16 µM
IC50 ([7]; read-out: TI50 (the source's name)): > 16 µM
CC50 at 72 h [1]: 61.8 µM

Structure (SMILES): CC(=O)N[C@@H]1CC(N)[C@@H](O[C@H]2OC([C@@H](C)O)[C@@H](O)C(O)C2N)C(O[C@@H]2O[C@H](CN)C(O)C2O)C1O (stereo partly drawn) [NB74-Ac, 6′-(R)-Methyl-5-O-(5″-amino-5″-deoxy-β-D-ribofuranose)-2′,3-amino-1-N-acetamide paromamine]
IC50 [3]: 92.3 ± 9.9 µM
CC50 at 72 h [1]: 2400 µM
ototoxicity potential, in words [2]: incredibly low ototoxicity potential
CC50 ([2]; concentration at 50% loss of hair cells, 72 hours incubation, read-out: Ototoxicity (Loss of outer hair cells), LC50^Coch): 2040 µM
ototoxicity relative to parent compound ([2]; from LC50^Coch values): decreased in three orders of magnitude

Structure (SMILES): C[C@H](N)[C@H]1O[C@@H](O[C@@H]2C(O)[C@H](N)CC(N)[C@H]2O[C@H]2OC([C@@H](C)O)[C@@H](O)[C@H](O)C2N)C(O)[C@H]1O (some centres unmarked) [NB124, reference compound]
CC50 at 72 h [1]: 11.1 µM
morphology of hair cell epithelium ([2]; 15 μM, 72 hours): almost complete
hair cell loss / damage ([2]; 15 μM, 72 hours, basal part of the cochlea): 80-90%

Structure (SMILES): C[C@@H](O)C1O[C@H](O[C@@H]2C(N)C[C@@H](NS(=O)(=O)c3ccccc3)C(O)C2O[C@@H]2O[C@H](CN)C(O)C2O)C(N)C(O)[C@@H]1O (stereo partly drawn) [NB74-PhS, 6′-(R)-Methyl-5-O-(5″-amino-5″-deoxy-II-D-ribofuranose)-2′,3-amino-1-N-phenylsulfonamide paromamine]
IC50 [3]: 160 ± 3.6 µM
CC50 at 72 h [1]: 176 µM

Structure (SMILES): CNC1C(O)C(OC2C(N)CC(N)C(OC3OC(C(C)O)C(O)C(O)C3N)C2O)OCC1(C)O (centres unmarked) [Compound G-418]
LD50 [8]: 0.04 mg/mL

IC50 [3]: 755 µM
folds less specific to the eukaryotic ribosome than NB74 ([3]; from IC50 values): 54 folds
Structure (SMILES): C[C@@H](O)C1O[C@H](O[C@@H]2C(N)C[C@@H](NC(=O)c3ccccc3)C(O)C2O[C@@H]2O[C@H](CN)C(O)C2O)C(N)C(O)[C@@H]1O (stereo partly drawn) [NB74-Bz, 6′-(R)-Methyl-5-O-(5″-amino-5″-deoxy-β-D-ribofuranose)-2′,3-amino-1-N-benzamide paromamine]

Structure (SMILES): C[C@H](N)[C@H]1O[C@@H](OC2C(O)[C@H](NS(C)(=O)=O)CC(N)[C@H]2O[C@H]2OC([C@@H](C)O)[C@@H](O)C(O)C2N)C(O)C1O (some centres unmarked) [NB124-MeS]
readthrough activity, G542X mutation [5]: better activity
